Results: patent US8846699B2, “Quinazoline derivatives as a multiplex inhibitor and method for the preparation thereof” (Hanmi Pharm. Co., Ltd., priority 2005, dated 2014)

Legend:
[1] = test system: skin cancer cell line, A431; test: Inhibitory effect on growth of cancer cell line A431, SRB; assay type: cell-based; conditions: overexpressed EGFR1 (HER-1)
Description: (§1) A skin cancer cell line, A431 (ATCC: CRL-1555), a breast cancer cell line, SK-Br3 (ATCC: HTB-30), and a colon and rectal cancer cell line, SW-620 (ATCC: CCL-227) were used to test the degrees of cancer cell growth inhibition using a culture medium, DEME (Dulbecco's Modified Eagle's Medium, JBI) including 4.5 g/l of glucose and 1.5 g/l of sodium bicarbonate and supplemented with 10% FBS (fetal bovine serum, JBI).
(§2) The cancer cell lines stored in a liquid nitrogen tank were each quickly thawed at 37° C., and centrifuged to remove the medium. The resulting cell pellet was mixed with a culture medium, incubated in a culture flask at 37° C. under 5% CO2 for 2 to 3 days, and the medium was removed. The remaining cells were washed with DPBS (Dulbecco's Phosphate Buffered Saline, JBI) and separated from the flask by using Trypsin-EDTA solution, and the separated cells were diluted with a culture medium to a concentration of 1.0×10^6 cells/ml in case of A431 and SW-620, and 2.0×10^6 cells/ml in case of SK-Br3. 100 μl of the diluted cell solution was added to each well of a 96-well plate, which was incubated at 37° C. under 5% CO2 for 1 day.
(§3) In case that the test compound was not soluble in DMSO, a small amount of 1% HCl was added thereto and treated in a 40° C. water bath for 30 mins until complete dissolution was attained. The test compound solution was diluted with a culture medium to a final concentration of 10 μM, and then diluted 10 times serially to 10^−4. The final concentration of DMSO was less than 1%, and the control compounds of Test Example 1 were used at a concentration of 0.0001 to 10 μM.
(§4) The medium was removed from each well of the 96-well microplate, 100 μl of a diluted test compound solution was added to each well holding cultured cells, and the microplate was incubated at 37° C. under 5% CO2 for 72 hours. After removing the medium from the plate, 50 μl of 10% trichloroacetic acid was added to each well, and the plate was kept at 37° C. for 1 hour to fix the cells to the bottom of the plate. 10% trichloroacetic acid was removed from each well, the plate was dried, 100 μl of an SRB (Sulforhodamine-B, Sigma) dye solution was added thereto, and reacted for 10 mins. The SRB dye solution was prepared by dissolving SRB in 1% acetic acid to a concentration of 0.4%. After removing the dye solution, the plate was washed with water, and dried. When the dye solution was not removed by water, 1% acetic acid was used.
(§5) 150 μl of 10 mM trisma base (Sigma) was added to each well, and the absorbance at 570 nm was determined with a microplate reader (Molecular device).

[2] = test system: Human Umbilical Vein Endothelial Cell (HUVEC); test: Inhibitory effect on growth of human umbilical vein endothelial cell (HUVEC), MTS; assay type: cell-based; conditions: 10 ng/ml VEGF, absorbance 490 nm
Description: HUVECs (Young Science, Inc) were suspended in a culture medium, EBM-2 (Endothelial Basic Media, Cambrex) supplemented with 2% bovine serum (Cambrex) and auxiliary additives for HUVEC culture (e.g., EGF, VEGF, FGF, etc., Cambrex), inoculated into a culture flask coated with 1% gelatin, and incubated in an incubator at 37° C. under 5% CO2 and 100% humidity.
100 μl of 5% bovine serum medium containing 10 ng/ml of vascular endothelial growth factor (VEGF) and auxiliary additives, while excluding other growth factors was added to each well of a 96-well plate. […] DMSO (Dimethylsulfoxide) was used to dissolve the test compounds, and the final concentration of DMSO was less than 1%.
100 μl of the diluted cell solution was added to each well of the 96-well plate, which was incubated in an incubator for 96 hours.
Then, 20 μl of MTS ([…], Promega) solution was added to each well of the plate, and the plate was incubated in an incubator for 4 hours to induce discoloration. After 4 hours, the pellets were dissolved by way of a thorough shaking, and the absorbance at 490 nm was determined.

[3] = test system: colon and rectal cancer cell line, SW-620; test: Inhibitory effect on growth of cancer cell line SW-620, SRB; assay type: cell-based; conditions: not having overexpressed EGFR and EGFR2
Description: as §1, §2, §3, §4, §5

[4] = biological target: EGFR1 (HER-1) (Homo sapiens (Human), UniProt P00533); test: EGFR1 (HER-1) enzyme assay, fluorescence polarization; assay type: biochemical; conditions: 100 μM ATP, poly(Glu, Tyr) substrate
[5] = test system: breast cancer cell line, SK-Br3; test: Inhibitory effect on growth of cancer cell line SK-Br3, SRB; assay type: cell-based; conditions: overexpressed EGFR2 (HER-2)
Description: as §1, §2, §3, §4, §5

[6] = biological target: VEGFR2 (KDR) (Homo sapiens (Human), UniProt P35968); test: VEGFR2 (KDR) enzyme assay, fluorescence polarization; assay type: biochemical; conditions: 5 μM ATP, poly(Glu, Tyr) substrate
Description: VEGFR2 (KDR, Proquinase) enzyme assay (auto-phosphorylation assay) was carried out by using Tyrosine Kinase Assay Kit Green (Panvera). The entire assay was conducted in accordance with VEGFR PTK inhibitor cellular activity test S.O.P.
A typical kinase inhibition reaction requires a protein tyrosine kinase, a suitable buffer solution system, a peptide substrate and ATP. In the present VEGFR tyrosine kinase assay, a buffer solution system containing 20 mM HEPES (pH 7.4), 5 mM MgCl2 and 2 mM MnCl2; 50 μM Na3VO4; 200 ng/10 μl VEGFR (Proquinase); 5 μM ATP; and 10 ng/ml poly(Glu, Tyr) (4:1, Sigma) as a substrate were used.
The compounds of Test Example 1 were used as control compounds at a concentration of 0.0001 to 10 μM. After 10 min, 10 μl of poly(Glu, Tyr) as a substrate was added to each well, and 10 μl of ATP was added thereto to initiate kinase reaction. The plate was incubated at room temperature for 1 hour, and 10 μl of 100 mM EDTA was added to each well to terminate the kinase reaction.
The added EDTA was mixed for 5 min. Thereafter, 10 μl of 10× anti-phosphotyrosine antibody (Panvera), 10 μl of 10×PTK Green Tracer (Panvera) and 30 μl of FP dilution buffer (Panvera) were added thereto, and the plate was incubated in a dark room at room temperature for 30 min.

EGFR1 (HER-1), sequence (P00533 25-1210): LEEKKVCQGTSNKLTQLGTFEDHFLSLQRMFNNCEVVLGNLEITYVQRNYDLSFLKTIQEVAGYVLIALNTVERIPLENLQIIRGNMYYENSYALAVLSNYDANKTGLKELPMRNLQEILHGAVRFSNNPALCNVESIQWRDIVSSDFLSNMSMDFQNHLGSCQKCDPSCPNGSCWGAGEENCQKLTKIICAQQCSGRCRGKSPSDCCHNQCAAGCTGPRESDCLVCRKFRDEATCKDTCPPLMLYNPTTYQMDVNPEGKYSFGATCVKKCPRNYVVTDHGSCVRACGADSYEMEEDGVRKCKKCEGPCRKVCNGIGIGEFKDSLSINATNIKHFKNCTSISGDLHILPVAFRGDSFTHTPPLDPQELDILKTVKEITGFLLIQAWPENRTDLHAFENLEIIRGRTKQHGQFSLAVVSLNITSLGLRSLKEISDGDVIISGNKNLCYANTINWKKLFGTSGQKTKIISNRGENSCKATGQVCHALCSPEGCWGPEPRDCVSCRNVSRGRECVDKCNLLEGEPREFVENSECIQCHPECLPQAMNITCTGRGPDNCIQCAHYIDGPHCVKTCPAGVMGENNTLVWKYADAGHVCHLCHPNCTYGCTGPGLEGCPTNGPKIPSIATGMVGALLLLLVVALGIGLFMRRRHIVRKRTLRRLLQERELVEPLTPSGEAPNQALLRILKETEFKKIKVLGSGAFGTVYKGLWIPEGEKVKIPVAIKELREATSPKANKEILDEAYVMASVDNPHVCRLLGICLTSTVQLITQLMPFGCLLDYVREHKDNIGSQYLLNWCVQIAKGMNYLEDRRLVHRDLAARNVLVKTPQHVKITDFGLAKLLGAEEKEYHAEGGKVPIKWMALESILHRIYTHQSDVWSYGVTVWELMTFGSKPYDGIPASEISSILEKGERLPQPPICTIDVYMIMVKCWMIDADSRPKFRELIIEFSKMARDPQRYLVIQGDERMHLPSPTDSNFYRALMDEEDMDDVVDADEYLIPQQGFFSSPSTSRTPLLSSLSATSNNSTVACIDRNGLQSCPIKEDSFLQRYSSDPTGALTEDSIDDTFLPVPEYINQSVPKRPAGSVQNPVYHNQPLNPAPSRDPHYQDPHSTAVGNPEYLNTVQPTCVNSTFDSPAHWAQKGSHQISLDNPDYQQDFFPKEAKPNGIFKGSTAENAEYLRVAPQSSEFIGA
VEGFR2 (KDR), sequence (P35968 20-1356): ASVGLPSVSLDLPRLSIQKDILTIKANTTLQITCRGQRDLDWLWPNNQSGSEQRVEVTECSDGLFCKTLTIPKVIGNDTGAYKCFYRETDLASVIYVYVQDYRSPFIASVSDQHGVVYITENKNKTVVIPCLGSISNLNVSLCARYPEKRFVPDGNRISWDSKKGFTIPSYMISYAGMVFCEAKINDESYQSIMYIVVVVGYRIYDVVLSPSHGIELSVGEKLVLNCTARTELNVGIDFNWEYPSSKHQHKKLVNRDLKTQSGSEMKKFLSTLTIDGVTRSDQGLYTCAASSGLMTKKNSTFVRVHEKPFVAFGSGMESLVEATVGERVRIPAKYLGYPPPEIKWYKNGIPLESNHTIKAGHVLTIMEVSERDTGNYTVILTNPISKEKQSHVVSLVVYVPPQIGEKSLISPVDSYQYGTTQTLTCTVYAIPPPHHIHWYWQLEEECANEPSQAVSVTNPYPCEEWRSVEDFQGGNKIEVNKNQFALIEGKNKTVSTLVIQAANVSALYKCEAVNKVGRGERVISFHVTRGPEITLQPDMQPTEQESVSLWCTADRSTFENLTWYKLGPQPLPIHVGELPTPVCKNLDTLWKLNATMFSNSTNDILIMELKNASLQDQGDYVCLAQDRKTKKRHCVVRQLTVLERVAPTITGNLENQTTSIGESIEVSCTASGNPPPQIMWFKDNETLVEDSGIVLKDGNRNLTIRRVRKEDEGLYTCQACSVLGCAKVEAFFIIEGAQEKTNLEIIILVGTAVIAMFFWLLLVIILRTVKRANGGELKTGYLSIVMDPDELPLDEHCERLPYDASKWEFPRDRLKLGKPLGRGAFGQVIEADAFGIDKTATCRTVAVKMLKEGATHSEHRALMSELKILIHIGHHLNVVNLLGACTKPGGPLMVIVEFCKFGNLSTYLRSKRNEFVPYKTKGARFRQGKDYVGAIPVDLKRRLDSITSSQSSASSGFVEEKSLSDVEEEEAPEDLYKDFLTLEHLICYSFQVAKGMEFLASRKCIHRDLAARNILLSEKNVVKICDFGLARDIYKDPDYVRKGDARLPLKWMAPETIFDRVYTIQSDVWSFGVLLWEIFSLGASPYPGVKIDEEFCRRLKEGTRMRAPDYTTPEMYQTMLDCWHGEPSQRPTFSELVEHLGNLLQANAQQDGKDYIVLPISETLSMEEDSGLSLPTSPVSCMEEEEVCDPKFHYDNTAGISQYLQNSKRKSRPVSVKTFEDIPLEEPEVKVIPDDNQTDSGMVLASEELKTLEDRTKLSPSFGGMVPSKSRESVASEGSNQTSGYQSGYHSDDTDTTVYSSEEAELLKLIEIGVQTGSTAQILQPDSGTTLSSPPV

Compound	IC50 ([1]; Homo sapiens, A-431, 72 h) [nM]	IC50 ([3]; Homo sapiens, 72 h) [nM]	IC50 [4] [nM]	IC50 ([5]; Homo sapiens, SK-BR-3, 72 h) [nM]	IC50 [6] [nM]	IC50 ([1]; 72 hours) [nM]	IC50 ([3]; 72 hours) [nM]	IC50 ([5]; 72 hours) [nM]	IC50 ([2]; Homo sapiens, 96 h) [nM]	IC50 ([2]; 96 hours) [nM]
C=CC(=O)Nc1cc2c(Nc3ccc(Br)cc3F)ncnc2cc1OCC(CC)NC(C)=O (stereo not shown) [Example 86, N-[7-(2-acetylamino-butoxy)-4-(4-bromo-2-fluoro-phenylamino)-quinazolin-6-yl]-acrylamide]	71	722	69	208	98				118	
C=CC(=O)Nc1cc2c(Nc3ccc(Br)c(Cl)c3F)ncnc2cc1OCCNC(=O)CC [Example 142, N-[4-(4-bromo-3-chloro-2-fluoro-phenylamino)-7-(2-propionylamino-ethoxy)-quinazolin-6-yl]-acrylamide]	15	10000	14	45	106				132	
C=CC(=O)Nc1cc2c(Nc3ccc(Br)cc3F)ncnc2cc1OCCNC(=O)CNC [Example 60, N-{4-(4-bromo-2-fluoro-phenylamino)-7-[2-(2-methylamino-acetylamino)-ethoxy]-quinazolin-6-yl}-acrylamide]	125	9570	136	939	685				689	
C=CC(=O)Nc1cc2c(Nc3ccc(Br)cc3F)ncnc2cc1OCCNC(=O)CCN(C)C [Example 61, N-{4-(4-bromo-2-fluoro-phenylamino)-7-[2-(3-dimethylamino-propionylamino)-ethoxy]-quinazolin-6-yl}-acrylamide]	6	10000	9	59	354				384	
C=CC(=O)Nc1cc2c(Nc3ccc(Cl)cc3F)ncnc2cc1OCCNC(C)=O [Example 112, N-[7-(2-acetylamino-ethoxy)-4-(4-chloro-2-fluoro-phenylamino)-quinazolin-6-yl]-acrylamide]	19	9560		100	114				189	
C=CC(=O)Nc1cc2c(Nc3ccc(Br)cc3F)ncnc2cc1OCCNC(=O)C(CO)N(C)C (stereo not shown) [Example 162, N-{4-(4-bromo-2-fluoro-phenylamino)-7-[2-(2-dimethylamino-3-hydroxy-propionylamino)-ethoxy]-quinazolin-6-yl}-acrylamide]	154	10000		141	797				882	

Continued, in another order:

IC50 ([1]; Homo sapiens, A-431, 72 h) [nM]	IC50 ([3]; Homo sapiens, 72 h) [nM]	IC50 [4] [nM]	IC50 ([5]; Homo sapiens, SK-BR-3, 72 h) [nM]	IC50 [6] [nM]	IC50 ([1]; 72 hours) [nM]	IC50 ([3]; 72 hours) [nM]	IC50 ([5]; 72 hours) [nM]	Compound	IC50 ([2]; Homo sapiens, 96 h) [nM]	IC50 ([2]; 96 hours) [nM]
35	3670	32	399	782				C=CC(=O)Nc1cc2c(Nc3ccc(Br)cc3F)ncnc2cc1OCCNC(=O)CN1CCOCC1 [Example 103, N-{4-(4-bromo-2-fluoro-phenylamino)-7-[2-(2-morpholin-4-yl-acetylamino)-ethoxy]-quinazolin-6-yl}-acrylamide]	932	
82	721	80	106	357				C=CC(=O)Nc1cc2c(Nc3cc(OC)c(Cl)cc3F)ncnc2cc1OCCNC(C)=O [Example 129, N-[7-(2-acetylamino-ethoxy)-4-(4-chloro-2-fluoro-5-methoxy-phenylamino)-quinazolin-6-yl]-acrylamide]	350	
21	721	20	39	823				C=CC(=O)Nc1cc2c(Nc3cc(Cl)c(Cl)cc3F)ncnc2cc1OCCNC(=O)COC [Example 138, N-{4-(4,5-dichloro-2-fluoro-phenylamino)-7-[2-(2-methoxy-acetylamino)-ethoxy]-quinazolin-6-yl}-acrylamide]	845	
37	10000	32	234	325				C=CC(=O)Nc1cc2c(Nc3ccc(Br)cc3F)ncnc2cc1OCCNC(=O)CO [Example 45, N-{4-(4-bromo-2-fluoro-phenylamino)-7-[2-(2-hydroxy-acetylamino)-ethoxy]-quinazolin-6-yl}-acrylamide]	350	
26	10000		186	127				C=CC(=O)Nc1cc2c(Nc3c(F)cc(Br)cc3F)ncnc2cc1OCCNC(C)=O [Example 120, N-[7-(2-acetylamino-ethoxy)-4-(4-bromo-2,6-difluoro-phenylamino)-quinazolin-6-yl]-acrylamide]	269	
				985	238	10000	654	N-{2-[6-acryloylamino-4-(4-bromo-2-fluoro-phenylamino)-quinazolin-7-yloxy]-ethyl}-malonic acid ethylester [Example 69]		954
408	10000		3310	997				C=CC(=O)Nc1cc2c(Nc3ccc(Br)cc3F)ncnc2cc1OCCNC(=O)c1ccc[nH]1 [Example 99, 1H-pyrrole-2-carboxylic acid {2-[6-acryloylamino-4-(4-bromo-2-fluoro-phenylamino)-quinazolin-7-yloxy]-ethyl}-amide]	989	
34	10000		167	369				C=CC(=O)Nc1cc2c(Nc3ccc(Br)cc3F)ncnc2cc1OCCNS(C)(=O)=O [Example 33, N-[4-(4-bromo-2-fluoro-phenylamino)-7-(2-methanesulfonylamino-ethoxy)-quinazolin-6-yl]-acrylamide]	390	
	724		369	749				C=CC(=O)Nc1cc2c(Nc3ccc(Br)cc3F)ncnc2cc1OCCNC(=O)CCN [Example 62, N-[7-[2-(3-amino-propionylamino)-ethoxy]-4-(4-bromo-2-fluoro-phenylamino)-quinazolin-6-yl]-acrylamide]	697	
